Experiments:
Assay in all cases: relative viability (nuclei count vs DMSO), 5 days (fraction); higher = more cells survive
[1] = compound: CC1CC(=O)N(C2=CN=C(N=C2N1C3CCCC3)NC4=C(C=C(C=C4)C(=O)NC5CCN(CC5)C)OC)C [NPK76-II-72-1] + Cc1nc(NC(=O)N2CCC[C@H]2C(N)=O)sc1-c1ccnc(C(C)(C)C(F)(F)F)c1 [Alpelisib] (partner 2 µM)
Procedure, shortened: (§1)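 Relative viability divides the nuclei count in treated wells by that in vehicle wells. Lung cancer cell lines were seeded in 1536-well plates, dosed by pin tool the next day, and fixed and stained after 5 days in one step with final 0.05% Triton X-100, 1% formaldehyde and 1 ug/ml Hoechst. Dosing was a single drug or a fixed anchor-drug dose plus five library-drug doses (not always all listed) in √10 steps, and values are medians of duplicate plates imaged at 4×.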

BI-2536 + Pemetrexed = compound: CC[C@@H]1C(=O)N(C)c2cnc(Nc3ccc(C(=O)NC4CCN(C)CC4)cc3OC)nc2N1C1CCCC1 [BI-2536] + Nc1nc2[nH]cc(CCc3ccc(C(=O)N[C@@H](CCC(=O)O)C(=O)O)cc3)c2c(=O)[nH]1 [Pemetrexed] (partner 0.2 µM)
Procedure, shortened: as §1

NPK76-II-72-1 = compound: CC1CC(=O)N(C2=CN=C(N=C2N1C3CCCC3)NC4=C(C=C(C=C4)C(=O)NC5CCN(CC5)C)OC)C [NPK76-II-72-1]
Procedure, shortened: (§2)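 Five library-drug doses, separated by factors of √10, were pinned into 1536-well plates holding lung cancer cell lines after an overnight stay at 37 °C. Cells were fixed, permeabilised and Hoechst-stained in one step after 5 days without medium change, then imaged at 4×. Viability compares treated-well with vehicle-well nuclei, counted in MetaXpress, as a median across plates. Passing plates had control CV below 25% and at least one doubling.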

BI-2536 = compound: CC[C@@H]1C(=O)N(C)c2cnc(Nc3ccc(C(=O)NC4CCN(C)CC4)cc3OC)nc2N1C1CCCC1 [BI-2536]
Procedure, shortened: as §2

Cell Line	relative viability ([1]; first compound 0.01 µM)	relative viability ([1]; first compound 0.03162 µM)	relative viability ([1]; first compound 0.1 µM)	relative viability ([1]; first compound 0.3162 µM)	relative viability ([1]; first compound 1 µM)	relative viability (BI-2536 + Pemetrexed; first compound 0.01 µM)	relative viability (BI-2536 + Pemetrexed; first compound 0.03162 µM)	relative viability (BI-2536 + Pemetrexed; first compound 0.1 µM)	relative viability (BI-2536 + Pemetrexed; first compound 0.3162 µM)	relative viability (BI-2536 + Pemetrexed; first compound 1 µM)	relative viability (NPK76-II-72-1; 0.01 µM)	relative viability (NPK76-II-72-1; 0.03162 µM)	relative viability (NPK76-II-72-1; 0.1 µM)	relative viability (NPK76-II-72-1; 0.3162 µM)	relative viability (NPK76-II-72-1; 1 µM)	relative viability (BI-2536; 0.01 µM)	relative viability (BI-2536; 0.03162 µM)	relative viability (BI-2536; 0.1 µM)	relative viability (BI-2536; 0.3162 µM)	relative viability (BI-2536; 1 µM)
NCI-H596	0.523	0.448	0.405	0.479	0.498	0.528	0.491	0.487	0.277	0.29	0.99	0.97	1.02	1.02	1.01	0.963	1.11	0.747	0.402	0.286
A-427	1.08	1.1	1.02	1.09	1.03	1.01	1.07	0.504	0.198	0.196	0.943	1.07	0.984	0.929	0.977	0.996	0.961	0.589	0.137	0.151
EMC-BAC-2	0.723	0.764	0.786	0.668	0.774	0.44	0.429	0.367	0.309	0.285	0.916	0.96	0.981	0.921	1.05	0.979	1.03	0.505	0.238	0.246
NCI-H441	0.536	0.648	0.866	0.767	0.901	0.287	0.242	0.195	0.148	0.13	1.04	1.12	1.03	0.914	1.04	0.874	0.503	0.281	0.191	0.224
LCLC-103H	0.929	0.928	1.07	0.925	0.993	0.458	0.488	0.344	0.231	0.225	0.984	1.01	0.896	1.05	0.952	0.997	1.05	0.961	0.491	0.197
HCC-827	0.942	0.931	0.988	1.02	1.09	0.232	0.253	0.224	0.227	0.187	1.04	1.04	1.07	1.03	1.06	1.05	1.03	0.927	0.441	0.284
NCI-H1355	0.834	0.827	0.544	0.755	0.849	1.04	1	0.899	0.211	0.174	0.933	0.976	0.987	0.92	1.02	1.01	0.958	0.638	0.174	0.163
NCI-H1734	0.675	0.628	0.722	0.599	0.86	0.39	0.36	0.279	0.211	0.188	0.926	1.03	1	0.967	1.1	1.01	0.725	0.234	0.199	0.211
HARA	0.783	0.975	0.822	0.523	0.983	0.258	0.313	0.222	0.146	0.126	0.922	0.987	0.845	0.924	1.05	1.01	1.15	0.823	0.141	0.159
HCC-15	0.828	0.965	0.875	0.919	0.97	0.228	0.211	0.197	0.179	0.179	0.939	1.1	0.988	0.93	1.01	1.04	0.925	0.466	0.15	0.146
LCLC-97TM1	–	0.24	0.18	0.235	0.257	0.176	0.159	0.0973	0.0981	0.0935	1.07	1.03	0.959	0.752	1.13	0.969	1.01	0.813	0.129	0.0948
RERF-LC-KJ	0.727	0.928	0.773	0.683	0.86	0.46	0.46	0.31	0.186	0.213	0.959	1.01	0.986	0.889	1.06	0.987	1.01	0.765	0.211	0.237
NCI-H1651	0.887	1.03	0.893	0.852	1.04	0.613	0.583	0.511	0.139	0.0892	0.953	0.939	0.925	0.979	1.02	0.961	0.947	0.915	0.3	0.109
NCI-H2170	0.772	0.839	0.777	–	0.789	0.285	0.254	0.183	0.161	0.163	0.939	0.977	0.928	0.71	1.11	0.971	0.896	0.273	0.204	0.204
NCI-H2023	0.568	0.691	0.592	0.529	0.548	0.225	0.197	0.124	0.0926	0.0873	0.904	1.05	1.07	0.941	0.96	0.954	0.909	0.266	0.0935	0.11
